Data from patent US9096605B2, “Pyrazolopyrimidine derivatives as PI3 kinase inhibitors” (GlaxoSmithKline LLC, priority 2011, dated 2015).

Legend:
PI3K-beta = target: T1, PI3K-beta (Homo sapiens, UniProt P42338); assay: HTRF in vitro profiling assay for PI3K inhibition (beta isoform); assay type: biochemical; conditions: PI3K-beta enzyme pIC50 range, 200 pM enzyme, 100 uM ATP, 10 uM PIP2, 150 mM NaCl, corrected pIC50, read-out: PI3K-b Enz Activity
T1 construct: made in house
Description: HTRF In Vitro Profiling Assays for PI3K Inhibition
The PI3-Kinase profiling assays were developed to measure the compound-dependent inhibition of the alpha, beta, delta, and gamma isoforms of PI3K in an in vitro catalytic assay. This assay was developed and optimized from a kit produced by Upstate (Millipore catalog #33-017). Briefly, this procedure utilizes a pre-formed HTRF (Homogeneous Time-Resolved Fluorescence energy transfer) complex between four binding partners: 1) biotinylated PIP3, 2) GST tagged pleckstrin homology (PH) domain, 3) Europium labeled anti-GST monoclonal antibody, and 4) Streptavidin-Allophycocyanin (APC). The native PIP3 produced by PI 3-Kinase activity displaces biotin-PIP3 from the PH domain, resulting in the dissociation of the HTRF complex and a decrease in the fluorescence signal. The format of this assay is the same for all 4 isoforms of PI3K; the differences lie in the concentration of enzyme used to achieve the most robust signal. The alpha and delta assays are run at 400 pM enzyme; the beta assay is at 200 pM enzyme and the gamma assay is run at 1 nM enzyme. In addition, the alpha, beta and delta assays are run with 150 mM NaCl while the gamma assay is run in the absence of NaCl. The ATP concentration is 100 uM in the alpha, beta, and delta assays and 15 uM ATP in the gamma assay. All reactions are run at 10 uM PIP2
Compounds are serially diluted (3-fold in 100% DMSO) across a 384-well polypropylene mother plate from column 1 to column 12 and column 13 to column 24, to yield 11 concentrations for each test compound. Columns 6 and 18 contain only DMSO. Once titrations are made, […] is transferred to a 384-well low-volume assay plate (Greiner 784076). This assay plate contains three pharmacological controls (known PI3K inhibitors) and 3 assay controls: (1) Enzyme without inhibitor; (2) Buffer minus enzyme, and (3) Buffer minus enzyme plus native PIP3. DMSO is stamped into all wells of columns 6 and 18. PIP3 is added at 40 μM in 1× Reaction buffer (1 μL of 200 μM PIP3) to alternating rows of column 18 (wells 18 B, D, F, H, J, L, N, P). The no-enzyme control reactions are run in wells 18 A, C, E, G, I, K, M, O (0.1 μL of 100% DMSO).
The PI3-Kinase profiling assay was optimized using the HTRF kit provided by Upstate (Millipore). The assay kit contains seven reagents: 1) 4× Reaction Buffer; 2) native PIP2 (substrate); 3) Stop A (EDTA); 4) Stop B (Biotin-PIP3); 5) Detection Mix A (Streptavidin-APC); 6) Detection Mix B (Eu-labeled Anti-GST plus GST-tagged PH-domain); 7) Detection Mix C (KF). In addition, the following items were obtained or purchased: PI3Kinase (prepared by GSK BR&AD), dithiothreitol (Sigma, D-5545), Adenosine-5′-triphosphate (ATP, Teknova cat. # A0220), native PIP3 (1,2-dioctanoyl-sn-glycero-3-[phosphoinositil-3,4,5-triphosphate]tetraammonium salt (Avanti polar lipids, 850186P), DMSO (Sigma, 472301).
PI3Kinase Reaction Buffer is prepared by diluting the stock 1:4 with de-ionized water. Freshly prepared DTT is added at a final concentration of 5 mM on the day of use. Enzyme addition and compound pre-incubation are initiated by the addition of 2.5 μL of PI3K (at twice its final concentration) in 1× reaction buffer to all wells using a Multidrop Combi. Plates are incubated at room temperature for 15 minutes. Reactions are initiated by addition of 2.5 μL of 2× substrate solution (PIP2 and ATP in 1× reaction buffer) using a Multidrop Combi. Plates are incubated at room temperature for one hour. Reactions are quenched by the addition of 2.5 μL of stop solution (Stop A and Stop B pre-mixed at a ratio of 5:1, respectively) to all wells using the Multidrop Combi. […]

[1] = tested on: pAKT(Ser473) in MDA-MB-468 cells; assay: pAKT(Ser473) assay in MDA-MB-468 cells; assay type: cell-based; conditions: Homo sapiens, 0.5 h, compound treatment 30 minutes, MSD ELISA phospho AKT(Ser473), given as ranges, read-out: Cell Activity—pAKT IC50 in MDA-MB-468
Description: pAKT(Ser473) Assay in MDA-MB-468 Cells
MDA-MB-468 cells were plated in 384-well flat clear bottom tissue culture plates (Corning #3701) at a density of 5000 cells per 0.057 cm2 in 48 ul of RPMI 1640 media supplemented with 10% fetal bovine serum (FBS). Cells were seeded with a Wellmate liquid handler (Matrix). Columns 1 through 23 were plated with cells and column 24 contained media alone. Cells were incubated at 37° C. with 5% CO2 for approximately 16-20 hours. Duplicate compound plates were prepared in 384-well polypropylene V-Bottom plates (Greiner #781280).
Compound titrations were made across the columns (A1-A20). 20 ul of compound was added to the first column and diluted into a 20 point curve with dimethylsulfoxide (DMSO, Thermo #TS2064) using a 2-fold dilution factor with a liquid handling robot (Hamilton). Columns 22 through 24 contained DMSO alone. Titrations were diluted 682-fold for compound treatment with 4 ul of compound added to 105 ul of RPMI media. Two ul of the diluted compound was added to the cell plates containing 48 ul of media using a multimek robot (Beckman Coulter). Final DMSO concentrations were 0.15%. Cells were treated with compound for 30 minutes at 37° C. with 5% CO2.
Following incubation, media was aspirated from dosed cell plates using an ELx405 plate washer (Bio-Tek) and 25 ul of 4° C. Meso Scale Discovery (MSD) lysis buffer with the addition of protease and phosphatase inhibitors (supplied in MSD kit #N31CB-1) was added to each well using a multidrop combi (Thermo). Precoated 4-spot per well MSD ELISA plates coated with total and phospho AKT(Ser473) antibody and BSA (supplied in kit) were blocked for 1 hour at room temperature with 35 ul per well of 1× MSD wash buffer+3% BSA (supplied in kit).
Blocked plates were washed 4 times with 100 ul per well of 1× Tris wash buffer (supplied in MSD kit) using an Elx405 plate washer (Bio-Tek). To each well, 20 ul of cell lysate was added using a multimek robot (Beckman Coulter) and the plate incubated at 4° C. overnight (˜12-24 hours). Following incubation, the ELISA plates were washed 4 times (100 ul/well) with 1× Tris wash buffer. Twenty microliters per well of 1× detection antibody (supplied in MSD kit) was added using a multidrop combi (Thermo), followed by a 2 hour incubation at room temperature. Detection antibody was aspirated and the plates washed 4 times (100 ul/well) with 1× Tris wash buffer. Read Buffer (supplied in MSD kit) was added at 1× (35 ul/well) at room temperature using a multidrop (Thermo). Relative luminescence units (RLU) were determined using a SECTOR™ Imager 6000 with MSD Workbench Software.
Concentration Response Curves for pAKT(Ser473):
For analysis of the pAKT(Ser473) concentration response curves, the data was normalized using Phospho AKT values divided by the sum of corresponding Total AKT and Phospho AKT values. The normalized values are plotted as the percent of the DMSO-treated control values on the corresponding plate. To determine IC50 values, the data is fit to a 4 parameter nonlinear sigmoidal dose response (variable slope) using GraphPad Prism version 4 for Windows, (GraphPad Software, San Diego Calif. USA). Criteria for curve fitting and IC50 determination include that the IC50 values from duplicate runs must be within 2 to 3-fold of each other, the Y min must be less than or equal to 30% of the DMSO-treated control and the Y max must range between 80-120%. Any data point equal to or greater than 40% of the curve was not utilized.

T1 sequence (P42338 whole entry, canonical isoform): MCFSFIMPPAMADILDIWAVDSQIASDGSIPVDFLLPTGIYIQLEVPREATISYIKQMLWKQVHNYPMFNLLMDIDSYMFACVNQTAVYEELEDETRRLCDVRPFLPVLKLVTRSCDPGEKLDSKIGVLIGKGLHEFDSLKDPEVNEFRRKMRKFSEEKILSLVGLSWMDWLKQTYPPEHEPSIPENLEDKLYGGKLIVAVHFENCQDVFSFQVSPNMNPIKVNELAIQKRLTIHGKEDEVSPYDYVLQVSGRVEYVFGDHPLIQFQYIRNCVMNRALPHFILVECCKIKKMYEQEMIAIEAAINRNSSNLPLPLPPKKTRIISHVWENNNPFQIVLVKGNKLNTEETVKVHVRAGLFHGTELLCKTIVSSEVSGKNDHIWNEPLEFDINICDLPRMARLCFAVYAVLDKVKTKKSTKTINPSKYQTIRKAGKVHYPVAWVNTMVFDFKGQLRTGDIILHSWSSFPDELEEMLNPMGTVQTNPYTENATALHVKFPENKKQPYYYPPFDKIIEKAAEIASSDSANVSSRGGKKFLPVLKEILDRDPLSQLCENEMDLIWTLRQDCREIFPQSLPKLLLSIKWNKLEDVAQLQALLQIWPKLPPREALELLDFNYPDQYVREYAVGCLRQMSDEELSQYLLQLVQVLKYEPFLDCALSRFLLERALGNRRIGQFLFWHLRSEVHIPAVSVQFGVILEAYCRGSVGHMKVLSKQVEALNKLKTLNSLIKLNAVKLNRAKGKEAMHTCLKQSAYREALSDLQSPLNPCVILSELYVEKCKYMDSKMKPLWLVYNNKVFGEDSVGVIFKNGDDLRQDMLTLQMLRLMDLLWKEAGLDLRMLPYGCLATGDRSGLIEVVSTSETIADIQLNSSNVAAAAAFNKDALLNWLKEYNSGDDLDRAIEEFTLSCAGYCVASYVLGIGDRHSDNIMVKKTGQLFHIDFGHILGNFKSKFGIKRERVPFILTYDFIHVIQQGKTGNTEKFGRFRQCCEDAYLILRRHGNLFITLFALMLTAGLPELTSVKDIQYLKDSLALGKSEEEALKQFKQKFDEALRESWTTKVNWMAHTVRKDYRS
T1 sequence (P27986 whole entry partner, canonical isoform): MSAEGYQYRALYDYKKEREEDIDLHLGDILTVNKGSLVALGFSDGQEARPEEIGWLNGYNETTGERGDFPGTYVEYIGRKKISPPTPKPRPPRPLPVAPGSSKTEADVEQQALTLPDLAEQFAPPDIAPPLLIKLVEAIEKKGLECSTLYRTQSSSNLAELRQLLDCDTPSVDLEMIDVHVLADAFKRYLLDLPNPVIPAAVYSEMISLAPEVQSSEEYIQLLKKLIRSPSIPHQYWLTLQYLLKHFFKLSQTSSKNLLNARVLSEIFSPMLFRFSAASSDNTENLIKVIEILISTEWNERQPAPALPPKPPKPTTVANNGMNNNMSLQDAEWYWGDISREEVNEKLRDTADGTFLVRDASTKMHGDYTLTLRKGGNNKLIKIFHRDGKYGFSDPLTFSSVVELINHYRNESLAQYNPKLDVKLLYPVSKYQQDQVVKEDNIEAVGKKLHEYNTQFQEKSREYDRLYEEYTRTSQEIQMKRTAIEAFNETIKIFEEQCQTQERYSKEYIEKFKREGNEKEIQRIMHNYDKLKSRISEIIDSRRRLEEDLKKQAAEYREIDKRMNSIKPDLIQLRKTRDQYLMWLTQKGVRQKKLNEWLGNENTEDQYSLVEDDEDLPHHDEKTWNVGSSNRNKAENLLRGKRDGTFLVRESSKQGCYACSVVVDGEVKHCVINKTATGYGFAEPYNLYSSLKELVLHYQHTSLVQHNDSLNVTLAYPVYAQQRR

| Compound | IC50 (PI3K-beta) | IC50 [1] |
| --- | --- | --- |
| Cc1nn2c(O)cc(N3CCOCC3=O)nc2c1Cc1cccc(C(F)(F)F)c1C [Example 3, 4-(7-hydroxy-2-methyl-3-(2-methyl-3-(trifluoromethyl)benzyl)pyrazolo[1,5-a]pyrimidin-5-yl)morpholin-3-one] | 0.126 to 1.26 µM | > 20 µM |
| Cc1nn2c(O)cc(C3CCOCC3)nc2c1Cc1cccc(C(F)(F)F)c1C [Example 4, 2-methyl-3-(2-methyl-3-(trifluoromethyl)benzyl)-5-(tetrahydro-2H-pyran-4-yl)pyrazolo[1,5-a]pyrimidin-7-ol] | 0.00126 to 0.01 µM | 6 to 10 µM |
| Oc1cc(N2CCOCC2)nc2c(Cc3cccc(Cl)c3Cl)c(C(F)(F)F)nn12 [Example 7, 3-(2,3-dichlorobenzyl)-5-morpholino-2-(trifluoromethyl)pyrazolo[1,5-a]pyrimidin-7-ol] | 0.000126 to 0.001 µM | 1 to 5 µM |
| Cc1nn2c(O)cc(N3CCOC(C)C3)nc2c1Cc1cccc(C(F)(F)F)c1C (stereo not shown) [Example 2, 2-methyl-3-(2-methyl-3-(trifluoromethyl)benzyl)-5-(2-methylmorpholino)pyrazolo[1,5-a]pyrimidin-7-ol] | 0.00126 to 0.01 µM | 1 to 5 µM |
| Cc1c(Cc2cnn3c(O)cc(N4CCOCC4)nc23)cccc1C(F)(F)F [Example 11, 3-(2-methyl-3-(trifluoromethyl)benzyl)-5-morpholinopyrazolo[1,5-a]pyrimidin-7-ol] | 0.00126 to 0.01 µM | 1 to 5 µM |
| Cc1nn2c(NC(N)=O)cc(N3CCOCC3)nc2c1Cc1cccc(C(F)(F)F)c1C [Example 16, 1-(2-methyl-3-(2-methyl-3-(trifluoromethyl)benzyl)-5-morpholinopyrazolo[1,5-a]pyrimidin-7-yl)urea] | 0.0126 to 0.1 µM | > 20 µM |
| Cc1nn2ccc(C3CCOCC3)nc2c1Cc1cccc(C(F)(F)F)c1C [Example 5, 2-methyl-3-(2-methyl-3-(trifluoromethyl)benzyl)-5-(tetrahydro-2H-pyran-4-yl)pyrazolo[1,5-a]pyrimidine] | 0.126 to 1.26 µM | > 20 µM |

More lines, now with the values ahead:

| IC50 (PI3K-beta) | IC50 [1] | Compound |
| --- | --- | --- |
| 0.00126 to 0.01 µM | 11 to 20 µM | Oc1cc(-c2ccncc2)nc2c(Cc3cccc(Cl)c3Cl)c(C(F)(F)F)nn12 [Example 32, 3-(2,3-dichlorobenzyl)-5-(pyridin-4-yl)-2-(trifluoromethyl)pyrazolo[1,5-a]pyrimidin-7-ol] |
| 0.000126 to 0.001 µM | 6 to 10 µM | Cc1nn2c(O)cc(-c3ccncc3)nc2c1Cc1cccc(Cl)c1Cl [Example 30, 3-(2,3-dichlorobenzyl)-2-methyl-5-(pyridin-4-yl)pyrazolo[1,5-a]pyrimidin-7-ol] |
| 0.0126 to 0.1 µM | 1 to 5 µM | Cc1nn2c(-c3nn[nH]n3)cc(N3CCOCC3)nc2c1Cc1cccc(C(F)(F)F)c1C [Example 46, 4-(2-methyl-3-(2-methyl-3-(trifluoromethyl)benzyl)-7-(2H-tetrazol-5-yl)pyrazolo[1,5-a]pyrimidin-5-yl)morpholine] |
| 0.0126 to 0.1 µM | < 1 µM | Cc1nn2c(N)cc(N3CCOCC3)nc2c1Cc1cccc2ccccc12 [Example 27, 2-methyl-5-morpholino-3-(naphthalen-1-ylmethyl)pyrazolo[1,5-a]pyrimidin-7-amine] |
| 0.00126 to 0.01 µM | 1 to 5 µM | Cc1ccccc1Cc1c(C)nn2c(O)cc(-c3ccncc3)nc12 [Example 29, 2-methyl-3-(2-methylbenzyl)-5-(pyridin-4-yl)pyrazolo[1,5-a]pyrimidin-7-ol] |
| 0.00126 to 0.01 µM | < 1 µM | Cc1nn2c(-c3ncc[nH]3)cc(N3CCOCC3)nc2c1Cc1cccc2ccccc12 [Example 43, 4-(7-(1H-imidazol-2-yl)-2-methyl-3-(naphthalen-1-ylmethyl)pyrazolo[1,5-a]pyrimidin-5-yl)morpholine] |
| 0.00126 to 0.01 µM | < 1 µM | Cc1nn2c(-c3cc[nH]n3)cc(N3CCOCC3)nc2c1Cc1cccc2ccccc12 [Example 42, 4-(2-methyl-3-(naphthalen-1-ylmethyl)-7-(1H-pyrazol-3-yl)pyrazolo[1,5-a]pyrimidin-5-yl)morpholine] |
| 0.0126 to 0.1 µM | 6 to 10 µM | Cn1c(=O)c(Cc2cccc(Cl)c2Cl)c2nc(-c3ccncc3)cc(O)n21 [Example 50, 3-(2,3-dichlorobenzyl)-7-hydroxy-1-methyl-5-(pyridin-4-yl)pyrazolo[1,5-a]pyrimidin-2(1H)-one] |
| 0.00126 to 0.01 µM | < 1 µM | Cc1nn2c(-c3nc[nH]n3)cc(N3CCOCC3)nc2c1Cc1cccc2ccccc12 [Example 40, 4-(2-methyl-3-(naphthalen-1-ylmethyl)-7-(1H-1,2,4-triazol-3-yl)pyrazolo[1,5-a]pyrimidin-5-yl)morpholine] |
| 0.0126 to 0.1 µM | > 20 µM | Cc1c(Cc2c(O)nn3c(O)cc(C4CCOCC4)nc23)cccc1C(F)(F)F [Example 19, 3-(2-methyl-3-(trifluoromethyl)benzyl)-5-(tetrahydro-2H-pyran-4-yl)pyrazolo[1,5-a]pyrimidine-2,7-diol] |
